Results published in ChEMBL document CHEMBL4382202, “1-(2-Hydroxybenzoyl)-thiosemicarbazides are promising antimicrobial agents targeting d-alanine-d-alanine ligase in bacterio” (Eur J Med Chem, 2018).
Active and inactive are the calls of the source. The calls are words filed in the database; no cut-off is given here.

What was measured:
[1] = molecular target: T1, D-alanine--D-alanine ligase (Enterococcus faecalis (strain ATCC 700802 / V583)) (UniProt Q47758); test: Inhibition of Enterococcus faecalis JH2-2 C-terminal 6His-tagged DdlB expressed in Escherichia coli LMG194 assessed as residual activity at 10 uM preincubated for 30 mins followed by substrate addition and measured after 20 mins by Biomol Green reagent assay relative to control
T1 sequence (whole entry): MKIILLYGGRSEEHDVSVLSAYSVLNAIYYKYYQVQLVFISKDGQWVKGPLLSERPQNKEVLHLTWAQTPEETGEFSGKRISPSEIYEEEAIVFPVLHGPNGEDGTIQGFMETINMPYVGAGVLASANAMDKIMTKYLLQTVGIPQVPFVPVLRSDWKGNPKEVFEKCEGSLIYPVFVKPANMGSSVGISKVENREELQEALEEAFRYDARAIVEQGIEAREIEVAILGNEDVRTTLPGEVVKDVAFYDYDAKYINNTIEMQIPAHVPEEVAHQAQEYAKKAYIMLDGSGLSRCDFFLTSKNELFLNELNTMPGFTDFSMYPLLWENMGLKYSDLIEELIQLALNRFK

[2] = molecular target: T1, D-alanine--D-alanine ligase (Enterococcus faecalis (strain ATCC 700802 / V583)); test: Inhibition of Enterococcus faecalis JH2-2 C-terminal 6His-tagged DdlB expressed in Escherichia coli LMG194 at 10 uM preincubated for 30 mins followed by substrate addition and measured after 20 mins by Biomol Green reagent assay relative to control
[3] = molecular target: T1, D-alanine--D-alanine ligase (Enterococcus faecalis (strain ATCC 700802 / V583)); test: Inhibition of Enterococcus faecalis JH2-2 C-terminal 6His-tagged DdlB expressed in Escherichia coli LMG194 preincubated for 30 mins followed by substrate addition and measured after 20 mins in presence of 0.01% Triton X-100 by Biomol Green reagent assay
[4] = molecular target: T1, D-alanine--D-alanine ligase (Enterococcus faecalis (strain ATCC 700802 / V583)); test: Inhibition of Enterococcus faecalis JH2-2 C-terminal 6His-tagged DdlB expressed in Escherichia coli LMG194 at IC50 after 90 mins by Biomol Green reagent assay relative to control
[5] = molecular target: T1, D-alanine--D-alanine ligase (Enterococcus faecalis (strain ATCC 700802 / V583)); test: Inhibition of Enterococcus faecalis JH2-2 C-terminal 6His-tagged DdlB expressed in Escherichia coli LMG194 at IC50 after 10 mins by Biomol Green reagent assay relative to control
Pseudomonas aeruginosa = test: Antibacterial activity against Pseudomonas aeruginosa PAO1 after 18 to 24 hrs by microdilution assay; assay type: functional, organism-based
Escherichia coli = test: Antibacterial activity against Escherichia coli ATCC 25922 after 18 to 24 hrs by microdilution assay; assay type: functional, organism-based
Klebsiella pneumoniae = test: Antibacterial activity against Klebsiella pneumoniae ATCC 700603 after 18 to 24 hrs by microdilution assay; assay type: functional, organism-based

O=C(NNC(=S)Nc1ccc(F)cc1)c1ccccc1
Activity [1]: 100%

O=c1c2ccccc2ncn1NC(=S)Nc1ccccc1
Activity [1]: 100%

O=C(NNC(=S)Nc1ccc(F)cc1)c1ccccc1O
inhibition [2]: > 30%

O=C(NNC(=S)Nc1ccc(Cl)cc1)c1ccccc1O
inhibition [2]: > 30%

O=C(NNC(=S)Nc1ccc(OCc2ccccc2)cc1)c1ccccc1O
inhibition [2]: > 30%

O=C(NNC(=S)Nc1ccccc1F)c1ccccc1
Activity [1]: 100%

O=C(NNC(=O)c1ccccc1)Nc1ccc(Cl)c(Cl)c1
Activity [1]: 100%

O=C(NNC(=S)Nc1ccccc1)c1ccccc1O
inhibition [3]: Active | inhibition [4]: > 90% | inhibition [5]: 60% | inhibition [2]: > 30%

CC(=O)c1ccc(NC(=S)NNC(=O)c2ccccc2O)cc1
inhibition [2]: > 30%

O=C(NNC(=S)Nc1ccc(Cl)c(Cl)c1)c1cccc(F)c1
Activity [1]: 100%

O=C(NNC(=S)Nc1ccc([N+](=O)[O-])cc1)c1ccc(O)cc1
Activity [1]: 100%

O=C(NNC(=S)Nc1ccc(OC(F)(F)F)cc1)c1ccccc1O
MIC (Pseudomonas aeruginosa): inactive | MIC (Escherichia coli): inactive | MIC (Klebsiella pneumoniae): inactive | inhibition [2]: > 30%

N[C@@H]1CONC1=O
inhibition [2]: > 30%

O=C(NNC(=S)Nc1ccccc1Cl)c1ccccc1O
MIC (Pseudomonas aeruginosa): inactive | MIC (Escherichia coli): inactive | MIC (Klebsiella pneumoniae): inactive | inhibition [2]: > 30%

COc1ccccc1NC(=S)NNC(=O)c1ccccc1O
inhibition [2]: > 30%

CCCCCNC(=S)NNC(=O)c1ccccc1O
inhibition [2]: > 30%

O=C(NNC(=S)Nc1cccc(F)c1)c1ccccc1
Activity [1]: 100%

O=C(NNC(=S)Nc1ccc(Cl)c(Cl)c1)c1ccc(O)cc1
Activity [1]: 100%

O=C(NNC(=S)Nc1ccc(Cl)c(Cl)c1)c1ccc(F)cc1
Activity [1]: 100%

O=C(NNC(=S)Nc1ccc(Cl)c(Cl)c1)c1ccccc1
Activity [1]: 100%

O=C(NNC(=S)Nc1ccc(Cl)c(Cl)c1)c1cccc(O)c1
Activity [1]: 100%

O=C(NNC(=S)Nc1ccc(Cl)cc1Cl)c1ccccc1O
MIC (Pseudomonas aeruginosa): inactive | MIC (Escherichia coli): inactive | MIC (Klebsiella pneumoniae): inactive | inhibition [2]: > 30%

O=C(NNC(=S)Nc1cccnc1)c1ccccc1O
inhibition [2]: 30%

O=C(NNC(=S)Nc1cccc(I)c1)c1ccccc1O
inhibition [2]: > 30%

O=C(NNC(=S)Nc1ccc(Cl)c(Cl)c1)c1ccc(I)cc1O
inhibition [2]: > 30%

N#Cc1ccc(NC(=S)NNC(=O)c2ccccc2O)cc1
inhibition [2]: > 30%

O=C(NNC(=S)Nc1cccc2ccccc12)c1ccccc1O
inhibition [2]: > 30%

O=C(NNC(=S)Nc1cccc(F)c1)c1ccccc1O
inhibition [2]: > 30%

Nc1ccc(C(=O)NNC(=S)Nc2ccc(Cl)c(Cl)c2)c(O)c1
inhibition [2]: > 30%

O=C(NNC(=S)Nc1cccc(Cl)c1)c1ccccc1O
MIC (Pseudomonas aeruginosa): inactive | MIC (Escherichia coli): inactive | MIC (Klebsiella pneumoniae): inactive | inhibition [2]: > 30%

COc1ccc(NC(=S)NNC(=O)c2ccccc2O)cc1
inhibition [2]: > 30%

O=C(NNC(=S)Nc1ccc(Cl)cc1)c1ccccc1
Activity [1]: 100%

O=C(NNC(=O)c1ccccc1O)Nc1ccc(Cl)c(Cl)c1
Activity [1]: 100%

O=C(NNC(=S)NCCCN1CCOCC1)c1ccccc1O
inhibition [2]: 30%

O=C(NNC(=S)Nc1ccccc1Cl)c1ccccc1
Activity [1]: 100%

COc1ccccc1C(=O)NNC(=S)Nc1ccc(Cl)c(Cl)c1
Activity [1]: 100%

O=C(NNC(=S)Nc1cccc(Cl)c1)c1ccccc1
Activity [1]: 100%

O=C(NNC(=S)Nc1ccccc1F)c1ccccc1O
inhibition [2]: > 30%

O=C(NNC(=S)Nc1ccc(Cl)c(Cl)c1)c1cc2ccccc2cc1O
inhibition [2]: > 30%

O=C(NNC(=S)Nc1ccc(Cl)c(Cl)c1)c1ccccc1F
Activity [1]: 100%
